Target: T1, GPR (green proteorhodopsin) (uncultured marine gamma proteobacterium EBAC31A08, UniProt Q9F7P4, L105Q)
T1 construct: pET27b(+) NdeI/XhoI, C-terminal HSV tag and His6 tag kept; E. coli C43; Ni-NTA, DDM, DMPC/DMPA liposomes
Experiment: solid-state NMR (DNP, CSA, 2D […]/1H/[…]) and UV-Vis
Type: binding
Conditions: covalent; protonated Schiff base to Lys231; pH 9.0; labelled compound; called BPR

T1 sequence (Q9F7P4 18-249 L105Q): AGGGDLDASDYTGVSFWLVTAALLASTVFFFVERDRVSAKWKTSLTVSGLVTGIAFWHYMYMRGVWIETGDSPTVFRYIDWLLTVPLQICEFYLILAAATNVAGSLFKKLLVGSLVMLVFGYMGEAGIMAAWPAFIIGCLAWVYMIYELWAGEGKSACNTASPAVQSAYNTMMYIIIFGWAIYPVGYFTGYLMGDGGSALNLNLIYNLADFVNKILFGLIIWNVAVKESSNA

Compound: CC1=C(/C=C/C(C)=C/C=C/C(C)=C/C=O)C(C)(C)CCC1 [all-trans retinal]
- solid-state NMR (DNP, CSA, 2D 13C/1H/15N) and UV-Vis: Notable chemical shift changes between GPR and BPR have been observed
